Results on twelve compounds are retold here after patent publication US7928099B2, “Pyrimido [4,5-D] azepine derivatives as 5-HT2c agonists” (Pfizer Inc, priority 2007, dated 2011).

The structures appear in SMILES notation. Counter-ions that a name gives are not always drawn.

The Emax is the greatest response seen or fitted, relative to the assay's reference. A word on the EC50: it is the concentration needed to bring the measured effect to its halfway point. Usually Ki stands for the equilibrium dissociation constant of an inhibitor or competing ligand from its target.

Experiment [1] addresses T1, human recombinant 5-HT2c receptor (Homo sapiens, UniProt P28335).
T1 construct: expressed in transfected cells; host or cells: CHO K1 (Chinese hamster ovary), stably transfected
T1 sequence (P28335 33-458): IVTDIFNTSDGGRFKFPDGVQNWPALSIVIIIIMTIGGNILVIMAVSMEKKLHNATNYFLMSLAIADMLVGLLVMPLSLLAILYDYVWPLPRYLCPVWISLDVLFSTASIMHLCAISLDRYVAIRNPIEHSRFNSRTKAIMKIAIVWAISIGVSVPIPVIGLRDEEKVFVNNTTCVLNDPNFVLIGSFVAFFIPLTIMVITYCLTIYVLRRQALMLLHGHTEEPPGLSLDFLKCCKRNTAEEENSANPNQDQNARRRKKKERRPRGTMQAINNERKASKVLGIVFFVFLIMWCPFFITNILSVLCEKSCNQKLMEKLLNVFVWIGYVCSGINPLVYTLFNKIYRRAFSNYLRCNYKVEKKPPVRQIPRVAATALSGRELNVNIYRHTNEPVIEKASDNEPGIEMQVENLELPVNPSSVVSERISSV
The experiment in a line: FLIPR fluorescent Ca2+ mobilisation agonist assay in CHO K1 cells (Method 1). In kind it is cell-based. The conditions noted are these: for Emax: percentage of mean maximal response to 10 μM 5-HT; for EC50: agonist affinity, FLIPR.

Experiment [2] addresses T1, human recombinant 5-HT2c receptor. The experiment in a line: 3H-meselurgine radioligand binding SPA, membranes from Swiss 3T3 cells (Method 2). The settings on record: 3H-meselurgine displacement, Cheng-Prusoff; Swiss 3T3 membranes; read-out: Binding Affinity Ki. Here is the method:
The compounds of the invention were evaluated for biological activity by measuring the agonist affinity (EC50) and efficacy (Emax) at the human recombinant 5-HT2c receptor expressed in CHO K1 cells, using a fluorescent based Ca^2+ mobilisation assay format compatible with FLIPR technology (Method 1). Additionally, the binding activity of a compound was determined by measuring its affinity for the human recombinant 5-HT2c receptor membranes from Swiss 3T3 cells (Method 2).
The compounds were tested for biological activity by their ability to inhibit binding of the radioligand ^3H-meselurgine at the human recombinant 5-HT2C receptor expressed in the Swiss 3T3 cells using a scintillation proximity assay (SPA) technology.
Swiss 3T3 stably transfected with the 5-HT2C receptor were cultured under standard cell culture techniques. Specifically, cells were grown in 50 mL growth medium (Dulbecco's Modified Eagle's Medium (DMEM) culture media supplemented with 10% dialysed foetal calf serum (FCS), 2 mM penicillin/streptomycin and 20 μg/mL geneticin) in 225 cm^2 flasks at 37° C. and 5% CO2. Cells were grown to 60-80% confluency, harvested using trypsin-EDTA and pelleted by centrifugation for long-term storage at −80° C.
Cell pellets were thawed on ice and resuspended in 3 mL of membrane preparation buffer (see Media and Buffers for composition) per 1 mL of packed cell. The suspension was homogenised on ice for several 5 s intervals using a hand-held homogeniser. The homogenate was then centrifuged at 1,000 rpm for 5 min at 4° C.
The supernatants were then collected and retained. Initial cell & nuclei pellets (P1) were subsequently rehomogenised and centrifuged using the conditions cited above, and the supernatants collected and pooled with those retained from the first spin.
The pooled supernatants were centrifuged at 19,500 rpm for 45 min at 4° C., and the supernatants discarded. The pellets (P2) were then resuspended in 3 mL of membrane preparation buffer per 1 mL of the original packed cell volume. Protein concentrations were subsequently measured and the membrane suspension was finally frozen in aliquots of set volume and stored at −80° C. prior to use in assays.
For each batch of membrane used, optimal concentrations of Polylysine YSi SPA beads and membrane were determined. The assay free radioligand concentration was expressed as a percentage of the total free radioligand concentration to give an estimate of the radioligand depletion.
The affinity of ^3H-meselurgine for the human recombinant 5-HT2c receptor was determined for each membrane batch at the selected protein and bead concentrations. […] The mean KD for ^3H-meselurgine at a batch of membranes was determined from data from a minimum of three separate assays.
The required amount of membrane, was thawed on ice and added to a pre-determined volume of bead suspension in 50 mM HEPES buffer, pH 7.4. The beads were then pre-coupled by incubating the predetermined protein quantity per mg of bead on a roller 4° C. for 1 h. Subsequently, the bead/membrane complex was spun down at 1000 rpm for 5 min. The resulting pellet was resuspended in assay buffer at the specific concentration required for the final assay.
An aliquot of [^3H]-meselurgine stock was diluted in binding assay buffer to give a pre-determined final assay concentration less than the equilibrium dissociation constant (KD) value.
All test compounds were prepared at a concentration of 4 mM in 100% dimethyl sulphoxide (DMSO) from dry samples.
The same volume of assay buffer was added to specific wells of the plate to enable subsequent measurement of total radioligand binding. Furthermore, 5 μL of Mianserin at 25 μM (2.5 μM final assay concentration was subsequently added to pre-determined wells to determine non-specific binding (NSB).

The conditions of experiment [3]: cited from earlier work; for bladder capacity: anaesthetized guinea-pig cystometry; for urethral EMG activity: anaesthetized guinea-pig urethral EMG model.
The conditions of experiment [4]: anaesthetized dog; cited from earlier work.
The conditions of experiment [5]: conscious rats and monkeys; i.v., i.p., s.c. or i.m. administration; cited from earlier work.
For experiment [6] the following is noted: man; cited from earlier work.

As for `Cc1nc(Cc2ccccc2)nc2c1CCNCC2` [Example 68, 2-Benzyl-4-methyl-6,7,8,9-tetrahydro-5H-pyrimido[4,5-d]azepine], the maximal response (Emax) in experiment [1] (CHO-K1, efficacy) worked out at 71.4%. Further, in experiment [1], the EC50 stood at 179 nM. Besides, the Ki in experiment [2] amounted to 421 nM.

On to `CCCCc1nc(Cc2ccccc2)nc2c1CCNCC2` [Example 69, 2-Benzyl-4-butyl-6,7,8,9-tetrahydro-5H-pyrimido[4,5-d]azepine], for which the Emax in experiment [1] (CHO-K1, efficacy) turned out to be 77.1%. The EC50 in experiment [1] is 274 nM. Besides, the inhibition constant (Ki) in experiment [2] is 153 nM.

`COc1nc(C(F)(F)c2ccccc2)nc2c1CCNCC2` [Example 72, 2-(Difluoro-phenyl-methyl)-4-methoxy-6,7,8,9-tetrahydro-5H-pyrimido[4,5-d]azepine]: the Emax in experiment [1] (CHO-K1, efficacy) came out at 41.1%. Also, the EC50 in experiment [1] is 80 nM. In experiment [2], the Ki worked out at 77.7 nM.

For `COc1nc(C(F)(F)c2ccccc2)nc2c1CCNCC2` [Example 72A, 2-(Difluoro-phenyl-methyl)-4-methoxy-6,7,8,9-tetrahydro-5H-pyrimido[4,5-d]azepine hydrochloride], the EC50 in experiment [1] amounted to 35.6 nM. Besides, in experiment [1] (efficacy), the Emax stood at 31.9%. Also, the Ki in experiment [2] stood at 15 nM.

Regarding `CN(CC1CC1)c1nc(N2CCSCC2)nc2c1CCNCC2` [Example 90, N-(cyclopropylmethyl)-N-methyl-2-thiomorpholin-4-yl-6,7,8,9-tetrahydro-5H-pyrimido[4,5-d]azepin-4-amine], in experiment [1] (CHO-K1, efficacy), the Emax was 87.3%. Further, in experiment [1], the EC50 amounted to 75.9 nM. For the same compound, the Ki in experiment [2] was 24.7 nM.

Consider `CCNc1nc(N(C)CC)nc2c1CCNCC2` [Example 98, N-2,N-4-diethyl-N-2-methyl-6,7,8,9-tetra-hydro-5H-pyrimido[4,5-d]-azepin-4-amine], for which the maximum response (Emax) in experiment [1] (CHO-K1, efficacy) turned out to be 61.7%. Further, the EC50 in experiment [1] stood at 77 nM. Also, in experiment [2], the Ki stood at 16.3 nM.

In the case of `CN(C)c1nc(N(C)CC2CC2)nc2c1CCNCC2` [Example 104, N-2-(cyclopropylmethyl)-N-2,N-4,N-4-trimethyl-6,7,8,9-tetrahydro-5H-pyrimido[4,5-d]azepine-2,4-diamine], the Emax in experiment [1] (CHO-K1, efficacy) was 69%. Further, the EC50 in experiment [1] came out at 282 nM. For the same compound, in experiment [2], the Ki is 90.3 nM.

Turning to `C1CCN(c2nc3c(c(N4CCSCC4)n2)CCNCC3)C1` [Example 106, 2-pyrrolodin-1-yl-4-thiomorpholin-4-yl-6,7,8,9-tetrahydro-5H-pyrimido[4,5-d]azepine], the Emax in experiment [1] (CHO-K1, efficacy) came out at 78.4%. The EC50 in experiment [1] was 100 nM. Moreover, in experiment [2], the inhibition constant (Ki) came out at 41.6 nM.

In the case of `C[C@H](N)Cn1ccc2cc(F)c(Cl)cc21` [Ro-60-0175], in experiment [3], the bladder capacity entry was “doses related increases” and the “urethral EMG activity” value is reported as “doses related increases”. In addition, the urethral pressure entry in experiment [4] is recorded as “increased urethral pressure in a dose-dependent manner”. Also, the penile erection result in experiment [5] is reported as “enhance penile erection”.

Take `CCc1cc2c(ccc3cnn(C[C@H](C)N)c32)o1` [YM348]: in experiment [3], the bladder capacity result is given as “doses related increases” and the “urethral EMG activity” value is reported as “doses related increases”.

For the compound `Clc1cccc(N2CCNCC2)c1` [m-CPP], in experiment [3], the bladder capacity result was “doses related increases” and the “urethral EMG activity” value is recorded as “doses related increases”. Also, the proerectile activity result in experiment [6] is given as “associated with proerectile activity”. Besides, in experiment [5], the penile erection result is “enhance penile erection”.

For the compound `O=c1n(CCCN2CCN(c3cccc(Cl)c3)CC2)nc2ccccn12` [trazodone], in experiment [6], the proerectile activity result is listed as “associated with proerectile activity”.
